Data taken from the supplement of paper PMC10307832.

How the values were obtained:
Experiment in all cases: relative viability (nuclei count vs DMSO), 5 days (fraction); higher = more cells survive
[1] = compound: CC1=C(N=C(N=C1N)[C@H](CC(=O)N)NC[C@@H](C(=O)N)N)C(=O)N[C@@H]([C@H](C2=CN=CN2)OC3C(C(C(C(O3)CO)O)O)OC4C(C(C(C(O4)CO)O)OC(=O)N)O)C(=O)N[C@H](C)[C@H]([C@H](C)C(=O)N[C@@H]([C@@H](C)O)C(=O)NCCC5=NC(=CS5)C6=NC(=CS6)C(=O)NCCC[S+](C)C)O [Bleomycin] + Cc1cc(Nc2cc(N3CCN(C)CC3)nc(Sc3ccc(NC(=O)C4CC4)cc3)n2)n[nH]1 [Tozasertib] (partner 0.1 µM); settings: main component drawn
How it was run: (§1)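 Relative viability equals treated-well nuclei counts divided by vehicle-well nuclei counts. Counts came from 4× images of lung cancer cell lines grown in 1536-well plates for 5 days after pin-tool dosing on the day after seeding. Dosing used one drug alone or a fixed anchor-drug dose plus five library-drug doses (not always all listed) in √10 steps, and values are medians of duplicate plates.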

[2] = compound: CC1=C(N=C(N=C1N)[C@H](CC(=O)N)NC[C@@H](C(=O)N)N)C(=O)N[C@@H]([C@H](C2=CN=CN2)OC3C(C(C(C(O3)CO)O)O)OC4C(C(C(C(O4)CO)O)OC(=O)N)O)C(=O)N[C@H](C)[C@H]([C@H](C)C(=O)N[C@@H]([C@@H](C)O)C(=O)NCCC5=NC(=CS5)C6=NC(=CS6)C(=O)NCCC[S+](C)C)O [Bleomycin] + N=C(N)NC(=N)NCCc1ccccc1 [Phenformin] (partner 250 µM); settings: main component drawn
How it was run: as §1

[3] = compound: COc1cc([C@@H]2c3cc4c(cc3[C@@H](O[C@@H]3O[C@@H]5CO[C@@H](C)O[C@H]5[C@H](O)[C@H]3O)[C@H]3COC(=O)[C@H]23)OCO4)cc(OC)c1O [Etoposide] + CC(C)C[C@H](NC(=O)[C@H](Cc1ccccc1)NC(=O)c1cnccn1)B(O)O [Bortezomib] (partner 0.002 µM)
How it was run: as §1

[4] = compound: COc1cc([C@@H]2c3cc4c(cc3[C@@H](O[C@@H]3O[C@@H]5CO[C@@H](C)O[C@H]5[C@H](O)[C@H]3O)[C@H]3COC(=O)[C@H]23)OCO4)cc(OC)c1O [Etoposide] + CS(=O)(=O)CCNCc1ccc(-c2ccc3ncnc(Nc4ccc(OCc5cccc(F)c5)c(Cl)c4)c3c2)o1 [Lapatinib] (partner 2 µM)
How it was run: as §1

Cell Line	relative viability ([1]; first compound 0.01 µM)	relative viability ([1]; first compound 0.03162 µM)	relative viability ([1]; first compound 0.1 µM)	relative viability ([1]; first compound 0.3162 µM)	relative viability ([1]; first compound 1 µM)	relative viability ([2]; first compound 0.01 µM)	relative viability ([2]; first compound 0.03162 µM)	relative viability ([2]; first compound 0.1 µM)	relative viability ([2]; first compound 0.3162 µM)	relative viability ([2]; first compound 1 µM)	relative viability ([3]; first compound 0.01 µM)	relative viability ([3]; first compound 0.03162 µM)	relative viability ([3]; first compound 0.1 µM)	relative viability ([3]; first compound 0.3162 µM)	relative viability ([3]; first compound 1 µM)	relative viability ([4]; first compound 0.01 µM)	relative viability ([4]; first compound 0.03162 µM)	relative viability ([4]; first compound 0.1 µM)	relative viability ([4]; first compound 0.3162 µM)	relative viability ([4]; first compound 1 µM)
201T	0.874	0.943	0.894	0.642	0.548	0.447	0.436	0.47	0.361	0.364	1.04	1.1	1.01	1.04	0.765	1.07	1.05	0.916	0.921	0.729
A549						0.143	0.139	0.444	0.0518	0.0392						0.957	0.811	0.537	0.244	0.111
A-427	0.201	0.168	0.223	0.126	0.159	0.253	0.349	0.269	0.175	0.113	0.92	1.02	0.726	0.819	0.244	1.04	1.06	0.807	0.604	0.196
ABC-1	0.199	0.209	0.197	0.178	0.198	0.241	0.234	0.258	0.239	0.199	0.301	0.33	0.261	0.296	0.237	1.05	1.34	1.09	1.1	0.667
BEN	0.487	0.519	0.452	0.431	0.475	0.247	0.277	0.251	0.24	0.235	0.728	0.869		0.565	0.6	0.81	0.733		0.663	0.458
CAL-12T	0.23	0.249	0.179	0.179	0.208	0.474	0.466	0.297	0.175	0.163	1.07	1.08	0.846	0.648	0.385	0.73	0.688	0.434	0.52	0.356
COR-L23	0.169	0.156	0.128	0.102	0.104	0.316	0.292	0.219	0.123	0.123	0.962	0.937	0.804	0.693	0.342	0.854	1.06	0.92	0.588	0.14
COR-L 105	0.31	0.337	0.33	0.325	0.279	0.49	0.394	0.399	0.315	0.35	0.613	1.23	0.502	0.7	0.495	0.271	0.393	0.26	0.343	0.356
Calu-6											1.06	0.973	1.03	0.693	0.405	1.04	0.903	1.13	0.435	0.284
ChaGo-K-1	0.221	0.214	0.23	0.164	0.192	0.383	0.39	0.384	0.297	0.217	1.16	0.94	0.679	0.337	0.282					
EBC-1											0.528	0.503	0.55	0.581	0.379	0.2	0.245		0.214	0.196
EKVX	0.434	0.413	0.365	0.191	0.204	0.234	0.255	0.196	0.2	0.157	1	1.18	0.4	0.419	0.372	0.195	0.197	0.153	0.159	0.143
EMC-BAC-2	0.2	0.278	0.246	0.22	0.178	0.46	0.468	0.391	0.275	0.217	1.07	1.03	0.729	0.452	0.196	0.855	0.822	0.572	0.344	0.215
EPLC-272H	0.232	0.243	0.191	0.127	0.173	0.247	0.286	0.228	0.173	0.116	0.89	1.15	0.669	0.958	0.526	0.862	1.05	0.497	0.807	0.408
H3255	0.543	0.489	0.622	0.427	0.278	0.35	0.372	0.367	0.301	0.301	0.831	0.777	0.516	0.591	0.383	0.234	0.241	0.228	0.262	0.196
